28 molecules from patent US9718828B2 (MERCK SHARP & DOHME CORP., priority 2011, dated 2017) can be followed below.

SMILES strings stand for the structures. Counter-ions that a name gives are not always drawn.

Chain of Btk enzyme (His-Btk) (Q06187 whole entry): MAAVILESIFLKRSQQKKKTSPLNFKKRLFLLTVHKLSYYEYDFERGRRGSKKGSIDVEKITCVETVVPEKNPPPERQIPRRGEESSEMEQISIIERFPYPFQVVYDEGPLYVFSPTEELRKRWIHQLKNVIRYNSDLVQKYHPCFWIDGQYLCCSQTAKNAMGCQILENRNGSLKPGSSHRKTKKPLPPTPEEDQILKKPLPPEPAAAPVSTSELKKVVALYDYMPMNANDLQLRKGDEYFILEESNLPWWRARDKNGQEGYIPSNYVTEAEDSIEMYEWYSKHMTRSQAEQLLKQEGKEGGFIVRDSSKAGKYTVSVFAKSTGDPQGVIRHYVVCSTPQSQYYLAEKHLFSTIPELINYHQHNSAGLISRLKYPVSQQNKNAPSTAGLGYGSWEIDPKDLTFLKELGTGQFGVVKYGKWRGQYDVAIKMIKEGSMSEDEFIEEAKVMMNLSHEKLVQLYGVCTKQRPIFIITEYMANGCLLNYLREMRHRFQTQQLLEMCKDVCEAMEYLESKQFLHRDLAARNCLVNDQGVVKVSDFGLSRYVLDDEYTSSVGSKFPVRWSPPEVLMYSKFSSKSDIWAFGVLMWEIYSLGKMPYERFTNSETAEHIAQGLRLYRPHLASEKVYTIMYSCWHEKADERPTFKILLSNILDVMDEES

One test addresses Btk enzyme (His-Btk) (Homo sapiens (Human), UniProt Q06187). As to the kind of experiment: Btk enzyme activity, IMAP fluorescence polarization assay (Assay Method A).
Details: not given
(Fluorescence polarisation rises when a labelled molecule tumbles more slowly, as on binding a larger partner.)
For `Nc1nccn2c([C@@H]3CCCN(C(=O)CO)C3)nc(-c3ccc(C(=O)Nc4ccccn4)cc3)c12` [Example 53, (R)-4-(8-amino-3-(1-(2-hydroxyacetyl)piperidin-3-yl)imidazo[1,5-a]pyrazin-1-yl)-N-(pyridin-2-yl)benzamide], the EC50 (usually the concentration giving half of the maximal effect) was in the range of 10 to 100 nM. Take `CCN(CC)C(=O)C1CCCN(c2nc(-c3ccc(C(=O)Nc4ccccn4)cc3)c3c(N)nccn23)C1` (stereo not shown) [Example 230, 1-(8-amino-1-(4-(pyridin-2-ylcarbamoyl)phenyl)imidazo[1,5-a]pyrazin-3-yl)-N,N-diethylpiperidine-3-carboxamide, TFA salt]: the EC50 fell in the range of 10 to 100 nM.

For `Nc1nccn2c([C@@H]3CCCN(CC4CC4)C3)nc(-c3ccc(C(=O)Nc4cc(C(F)(F)F)ccn4)cc3)c12` [Example 140, (R)-4-(8-amino-3-(1-(cyclopropylmethyl)piperidin-3-yl)imidazo[1,5-a]pyrazin-1-yl)-N-(4-(trifluoromethyl)pyridin-2-yl)benzamide, TFA salt], the EC50 lay in the range of 10 to 100 nM.

Molecule `CC1(C(=O)N2CCC[C@@H](c3nc(-c4ccc(C(=O)Nc5cnccn5)cc4)c4c(N)nccn34)C2)COC1` [Example 290, (R)-4-(8-amino-3-(1-(3-methyloxetane-3-carbonyl)piperidin-3-yl)imidazo[1,5-a]pyrazin-1-yl)-N-(pyrazin-2-yl)benzamide] gave an EC50 of 10 to 100 nM.

In turn, `CCN(CC)c1nc(-c2ccc(C(=O)Nc3ccccn3)cc2)c2c(N)nccn12` [Example 213, 4-(8-amino-3-(diethylamino)imidazo[1,5-a]pyrazin-1-yl)-N-(pyridin-2-yl)benzamide] gave an EC50 of 100 to 1000 nM. Same read-out and setting: under `Nc1nccn2c([C@@H]3CCC[C@H](NC(=O)OCc4ccccc4)C3)nc(-c3ccc(C(=O)Nc4cc(C(F)(F)F)ccn4)cc3)c12` (relative stereo) [Example 154, benzyl (cis)-3-(8-amino-1-(4-(4-(trifluoromethyl)pyridin-2-ylcarbamoyl)phenyl)imidazo [1,5-a]pyrazin-3-yl)cyclohexylcarbamate] stands 10 to 100 nM; under `CC1(C)CC(c2nc(-c3ccc(C(=O)Nc4ccccn4)cc3)c3c(N)nccn23)CCO1` (stereo not shown) [Example 35, 4-(8-amino-3-(2,2-dimethyltetrahydro-2H-pyran-4-yl)imidazo[1,5-a]pyrazin-1-yl)-N-(pyridin-2-yl)benzamide], 10 to 100 nM; under `C=CC1(C(=O)N2CCC[C@@H](c3nc(-c4ccc(C(=O)Nc5cc(C(F)(F)F)ccn5)cc4)c4c(N)nccn34)C2)COC1` [Example 91, (R)-4-(8-amino-3-(1-(3-vinyloxetane-3-carbonyl)piperidin-3-yl)imidazo[1,5-a]pyrazin-1-yl)-N-(4-(trifluoromethyl)pyridin-2-yl)benzamide], less than 10 nM. The same measure, in the same setting: as for `CN(C)CCCC(=O)N1CC[C@@H](c2nc(-c3ccc(C(=O)Nc4ccccn4)cc3)c3c(N)nccn23)C1` [Example 124, (R)-4-(8-amino-3-(1-(4-(dimethylamino)butanoyl)pyrrolidin-3-yl)imidazo[1,5-a]pyrazin-1-yl)-N-(pyridin-2-yl)benzamide], the figure is 100 to 1000 nM; as for `C[C@@H]1CC[C@@H](c2nc(-c3ccc(C(=O)Nc4cc(C(F)(F)F)ccn4)cc3)c3c(N)nccn23)CN1C(=O)C1CC1` (relative stereo) [Example 188, 4-(8-amino-3-((trans)-1-(cyclopropanecarbonyl)-6-methylpiperidin-3-yl)imidazo[1,5-a]pyrazin-1-yl)-N-(4-(trifluoromethyl)pyridin-2-yl)benzamide, TFA salt], 10 to 100 nM. For `COCCC(=O)N1CCC[C@@H](c2nc(-c3ccc(C(=O)Nc4cc(C5CC5)ccn4)cc3)c3c(N)nccn23)C1` [Example 61, (R)-4-(8-amino-3-(1-(3-methoxypropanoyl)piperidin-3 yl)imidazo[1,5-a]pyrazin-1-yl)-N-(4-cyclopropylpyridin-2-yl)benzamide], the EC50 is less than 10 nM. Still for that read-out and setting: as for `CC(C)(C#N)C(=O)N1CCC[C@@H](n2nc(-c3ccc(C(=O)Nc4cc(C(F)(F)F)ccn4)cc3)c3c(N)ncnc32)C1` [Example 263, (R)-4-(4-amino-1-(1-(2-cyano-2-methylpropanoyl)piperidin-3-yl)-1H-pyrazolo[3,4-d]pyrimidin-3-yl)-N-(4-(trifluoromethyl)pyridin-2-yl)benzamide], the figure is 10 to 100 nM. The molecule `CC(C)(C#N)C(=O)N[C@@H]1CCC[C@@H](c2nc(-c3ccc(C(=O)Nc4cc(C(F)(F)F)ccn4)cc3)c3c(N)nccn23)C1` (relative stereo) [Example 162, 4-(8-amino-3-((trans)-3-(2-cyano-2-methylpropanamido)-cyclohexyl)imidazo[1,5-a]pyrazin-1-yl)-N-(4-(trifluoromethyl)pyridin-2-yl)benzamide] displayed an EC50 of less than 10 nM. For the molecule `N#Cc1ccnc(NC(=O)c2ccc(-c3nc(C4CCOC4)n4ccnc(N)c34)cc2)c1` (stereo not shown) [Example 33, 4-(8-amino-3-(tetrahydrofuran-3-yl)imidazo[1,5-a]pyrazin-1-yl)-N-(4-cyanopyridin-2-yl)benzamide], the EC50 was in the range of 10 to 100 nM. On to `CCN(CC)c1nc(-c2ccc(C(=O)Nc3cc(C#N)ccn3)cc2)c2c(N)nccn12` [Example 215, 4-(8-amino-3-(diethylamino)imidazo[1,5-a]pyrazin-1-yl)-N-(4-cyanopyridin-2-yl)benzamide], for which the EC50 was 10 to 100 nM.

`CS(=O)(=O)CCC(=O)N1CCC[C@@H](c2nc(-c3ccc(C(=O)Nc4cc(C(F)(F)F)ccn4)cc3)c3c(N)nccn23)C1` [Example 77, (R)-4-(8-amino-3-(1-(3-(methylsulfonyl)propanoyl)piperidin-3-yl)imidazo[1,5-a]pyrazin-1-yl)-N-(4-(trifluoromethyl)pyridin-2-yl)benzamide] showed an EC50 of less than 10 nM.

In the case of `Nc1nccn2c(C3CCOCC3)nc(-c3ccc(C(=O)Nc4ccccn4)cc3)c12` [Example 27, 4-(8-amino-3-(tetrahydro-2H-pyran-4-yl)imidazo[1,5-a]pyrazin-1-yl)-N-(pyridin-2-yl)benzamide], the EC50 fell in the range of 10 to 100 nM.

Staying with this test, now noted: read-out: EC50 Btk activity values - Assay Method A.
As for `Nc1nccn2c([C@@H]3CCCN(C(=O)OCc4ccccc4)C3)nc(-c3ccc(C(=O)Nc4cc(C(F)(F)F)ccn4)cc3)c12` [Example 107, (R)-benzyl 3-(8-amino-1-(4-(4-(trifluoromethyl)pyridin-2-ylcarbamoyl)phenyl)imidazo[1,5-a]pyrazin-3-yl)piperidine-1-carboxylate], the EC50 was less than 10 nM.

Consider `Nc1ncc(Cl)n2c([C@@H]3CCCNC3)nc(-c3ccc(C(=O)Nc4cc(C(F)(F)F)ccn4)cc3)c12` [Example 307], for which the EC50 is less than 10 nM.

The test is the same for the next values; noted with them: read-out: EC50 Btk activity values - Assay Method A; IMAP-FP, 60 min pre-incubation, 5 μM ATP; class 100-1000 is given as ≧100 nM-<1 μM.
In the case of `COCCC(=O)N1CCOC(c2nc(-c3ccc(C(=O)Nc4cc(C(F)(F)F)ccn4)cc3)c3c(N)ncc(Cl)n23)C1` (stereo not shown) [Example 314, 4-(8-amino-5-chloro-3-(4-(3-methoxypropanoyl)morpholin-2-yl)imidazo[1,5-a]pyrazin-1-yl)-N-(4-(trifluoromethyl)pyridin-2-yl)benzamide], the EC50 was less than 10 nM. For the molecule `Cc1cnc(N)c2c(-c3ccc(C(=O)Nc4cc(C(F)(F)F)ccn4)cc3)nc([C@@H]3CCCN(C(=O)C4(C)COC4)C3)n12` [Example 306, (R)-4-(8-amino-5-methyl-3-(1-(3-methyloxetane-3-carbonyl)piperidin-3-yl)imidazo[1,5-a]pyrazin-1-yl)-N-(4-(trifluoromethyl)pyridin-2-yl)benzamide], the EC50 was less than 10 nM. For the molecule `Nc1nccn2c([C@@H]3CCC[C@@H](N)C3)nc(-c3ccc(C(=O)Nc4cc(C(F)(F)F)ccn4)cc3)c12` (relative stereo) [Example 165, 4-(8-amino-3-((trans)-3-aminocyclohexyl)imidazo[1,5-a]pyrazin-1-yl)-N-(4-(trifluoromethyl)pyridin-2-yl)benzamide], the EC50 was less than 10 nM. For `Nc1ncc(Cl)n2c(C3CN(C(=O)C4(O)CCC4)CCO3)nc(-c3ccc(C(=O)Nc4cc(C(F)(F)F)ccn4)cc3)c12` (stereo not shown) [Example 316, 4-(8-amino-5-chloro-3-(4-(1-hydroxycyclobutanecarbonyl)morpholin-2-yl)imidazo[1,5-a]pyrazin-1-yl)-N-(4-(trifluoromethyl)pyridin-2-yl)benzamide], the EC50 is less than 10 nM. As to `CCCc1ccnc(NC(=O)c2ccc(-c3nc([C@H]4CC[C@H](O)CC4)n4ccnc(N)c34)cc2F)c1` [Example 13, 4-(8-amino-3-((trans)-4-hydroxycyclohexyl)imidazo[1,5-a]pyrazin-1-yl)-2-fluoro-N-(4-propylpyridin-2-yl)benzamide], the EC50 was less than 10 nM. Regarding `CC(C)(F)C(=O)N1CCC[C@@H](c2nc(-c3ccc(C(=O)Nc4cc(C(F)(F)F)ccn4)cc3)c3c(N)ncnn23)C1` [Example 257, (R)-4-(4-amino-7-(1-(2-fluoro-2-methylpropanoyl)piperidin-3-yl)imidazo[1,5-f][1,2,4]triazin-5-yl)-N-(4-(trifluoromethyl)pyridin-2-yl)benzamide], the EC50 is less than 10 nM. For `CONC(=O)C1CCCN(c2nc(-c3ccc(C(=O)Nc4cc(C(F)(F)F)ccn4)cc3)c3c(N)nccn23)C1` (stereo not shown) [Example 242, 1-(8-amino-1-(4-(4-(trifluoromethyl)pyridin-2-ylcarbamoyl)phenyl)imidazo[1,5-a]pyrazin-3-yl)-N-methoxypiperidine-3-carboxamide, TFA salt], the half-maximal effective concentration (EC50) is less than 10 nM. For `CCOC(=O)N1CCC[C@@H](c2nc(-c3ccc(C(=O)Nc4ccccn4)cc3)c3c(N)nccn23)C1` [Example 47, (R)-ethyl 3-(8-amino-1-(4-(pyridin-2-ylcarbamoyl)phenyl)imidazo[1,5-a]pyrazin-3-yl)piperidine-1-carboxylate], the EC50 was less than 10 nM. In the case of `COC[C@H](C)NC(=O)C1CCCN(c2nc(-c3ccc(C(=O)Nc4ccccn4)cc3)c3c(N)nccn23)C1` (stereo partly drawn) [Example 235, 1-(8-amino-1-(4-(pyridin-2-ylcarbamoyl)phenyl)imidazo[1,5-a]pyrazin-3-yl)-N-((S)-1-methoxypropan-2-yl)piperidine-3-carboxamide, TFA salt], the EC50 was less than 10 nM.
